In the supplement of paper PMC10307832:

Key:
Experiment in all cases: relative viability (nuclei count vs DMSO), 5 days (fraction); higher = more cells survive
[1] = compound: COc1cc(Nc2ncc(F)c(Nc3ccc4c(n3)NC(=O)C(C)(C)O4)n2)cc(OC)c1OC [R406] + Cc1nc(NC(=O)N2CCC[C@H]2C(N)=O)sc1-c1ccnc(C(C)(C)C(F)(F)F)c1 [Alpelisib] (partner 2 µM)
Summary of the method: (§1)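 Nuclei were stained with Hoechst during a one-step fixation (final 0.05% Triton X-100, 1% formaldehyde, 1 ug/ml Hoechst) carried out 5 days after dosing, then counted on 4× images. The cells, lung cancer lines in 1536-well plates, had been dosed by pin tool the day after seeding with one drug alone or a fixed anchor-drug dose plus five library-drug doses (not always all listed) in √10 steps. Relative viability is the nuclei count in treated wells divided by that in vehicle wells, and each value is the median of duplicate plates.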

[2] = compound: COc1cc(Nc2ncc(F)c(Nc3ccc4c(n3)NC(=O)C(C)(C)O4)n2)cc(OC)c1OC [R406] + Cc1nc(Nc2ncc(C(=O)Nc3c(C)cccc3Cl)s2)cc(N2CCN(CCO)CC2)n1 [Dasatinib] (partner 0.075 µM)
Summary of the method: as §1

[3] = compound: O=C(/C=C/c1cccnc1)NCCCCC1CCN(C(=O)c2ccccc2)CC1 [Daporinad] + COc1cc2c(Oc3ccc(NC(=O)C4(C(=O)Nc5ccc(F)cc5)CC4)cc3F)ccnc2cc1OCCCN1CCOCC1 [Foretinib] (partner 0.25 µM)
Summary of the method: as §1

[4] = compound: O=C(/C=C/c1cccnc1)NCCCCC1CCN(C(=O)c2ccccc2)CC1 [Daporinad] + N=C(N)NC(=N)NCCc1ccccc1 [Phenformin] (partner 250 µM)
Summary of the method: as §1

Cell Line	relative viability ([1]; first compound 0.253 µM)	relative viability ([1]; first compound 0.8 µM)	relative viability ([1]; first compound 8 µM)	relative viability ([2]; first compound 0.08 µM)	relative viability ([2]; first compound 0.253 µM)	relative viability ([2]; first compound 0.8 µM)	relative viability ([2]; first compound 2.53 µM)	relative viability ([2]; first compound 8 µM)	relative viability ([3]; first compound 0.0005 µM)	relative viability ([3]; first compound 0.001581 µM)	relative viability ([3]; first compound 0.005 µM)	relative viability ([3]; first compound 0.01581 µM)	relative viability ([4]; first compound 0.0005 µM)	relative viability ([4]; first compound 0.001581 µM)	relative viability ([4]; first compound 0.005 µM)	relative viability ([4]; first compound 0.01581 µM)	relative viability ([1]; first compound 0.08 µM)	relative viability ([1]; first compound 2.53 µM)
NCI-H441	0.843	0.878	0.296	0.669	0.659	0.851	0.429	0.318	1.24	0.997	1.19	0.911	0.813	0.82	0.883	0.734	–	–
NCI-H460	0.476	0.665	0.0573	0.477	0.584	0.586	0.323	0.257	1.07	1.04	0.968	1.02	0.472	0.575	0.533	0.523	0.495	–
NCI-H520	1.09	0.779	0.525	0.209	0.235	0.223	0.198	0.189	0.815	0.384	0.324	0.181	0.554	0.286	0.187	0.22	0.913	0.316
NCI-H596	0.53	0.621	0.183	0.619	0.61	0.686	0.505	0.173	0.864	0.965	0.819	0.325	0.627	0.749	0.774	0.746	0.486	0.387
NCI-H647	1.03	1.52	0.12	0.168	0.161	0.251	0.108	0.0646	1.32	1.18	1.06	1.28	0.534	0.65	0.641	0.643	0.977	0.461
NCI-H650	1.04	1.16	0.802	0.463	0.513	0.483	0.426	0.425	1.08	1.09	1.01	1.08	0.45	0.422	0.522	0.507	1.25	0.87
NCI-H661	0.878	0.877	0.274	0.847	0.824	1.1	0.684	0.402	0.999	1.03	0.671	0.573	0.266	0.284	0.308	0.288	0.299	0.597
NCI-H727	0.574	0.61	0.245	0.347	0.432	0.369	–	0.3	1.01	0.908	0.899	0.691	0.529	0.657	0.67	0.522	0.56	0.497
NCI-H838	1.11	1.16	0.541	0.25	0.287	0.52	0.204	0.219	1.06	1.11	0.965	0.567	0.551	0.799	0.542	0.415	0.971	0.547
NCI-H1355	0.917	0.985	0.497	0.754	0.79	0.777	0.491	0.32	0.997	1.01	1.06	1.02	0.454	0.506	0.542	0.508	0.838	0.547
NCI-H1395	1.04	1.09	0.619	0.441	0.444	0.434	0.399	0.356	1.08	0.954	1.01	1.15	0.431	0.421	0.471	0.482	1.13	0.813
NCI-H1437	1.09	1.17	0.487	0.439	0.408	0.369	0.286	0.131	1.17	1.24	1.34	1.22	0.349	0.325	0.349	0.362	1	0.928
NCI-H1563	0.996	0.924	0.634	0.438	0.507	0.448	0.473	0.376	0.893	0.972	0.999	0.86	0.715	0.744	0.755	0.626	0.938	0.682
NCI-H1651	1.03	1.04	0.512	0.402	0.468	0.451	0.221	0.198	0.722	0.769	0.623	0.595	0.299	0.381	0.433	0.329	0.9	0.699
NCI-H1666	0.953	1.02	0.385	0.811	0.943	0.891	0.648	0.409	0.962	0.958	0.91	0.943	0.586	0.563	0.602	0.562	1.11	0.786
NCI-H1734	0.732	0.748	0.465	0.537	0.559	0.459	0.393	0.27	0.871	0.875	0.938	0.679	0.437	0.496	0.479	0.299	0.67	0.521
NCI-H1755	1.05	1.04	0.21	0.401	0.508	0.407	0.264	0.135	0.928	0.46	0.848	0.966	0.648	0.628	0.639	0.667	0.834	0.632
NCI-H1793	0.691	0.921	0.32	0.407	0.466	0.423	0.184	0.164	0.738	0.868	0.956	0.807	0.322	0.395	0.403	0.564	1.08	0.434

Cell Line	relative viability ([1]; first compound 0.253 µM)	relative viability ([1]; first compound 0.8 µM)	relative viability ([1]; first compound 8 µM)	relative viability ([2]; first compound 0.08 µM)	relative viability ([2]; first compound 0.253 µM)	relative viability ([2]; first compound 0.8 µM)	relative viability ([2]; first compound 2.53 µM)	relative viability ([2]; first compound 8 µM)	relative viability ([3]; first compound 0.0005 µM)	relative viability ([3]; first compound 0.001581 µM)	relative viability ([3]; first compound 0.005 µM)	relative viability ([3]; first compound 0.01581 µM)	relative viability ([4]; first compound 0.0005 µM)	relative viability ([4]; first compound 0.001581 µM)	relative viability ([4]; first compound 0.005 µM)	relative viability ([4]; first compound 0.01581 µM)	relative viability ([1]; first compound 0.08 µM)	relative viability ([1]; first compound 2.53 µM)
NCI-H1915	1.12	1.04	1.01	0.301	0.321	0.31	–	0.269	1.16	1.07	1.17	1.08	0.328	0.398	0.362	0.365	1.08	1.02
NCI-H1944	0.84	0.757	0.512	0.22	0.207	0.209	0.164	0.153	0.897	0.903	0.971	0.945	0.206	0.219	0.214	0.241	0.758	0.652
NCI-H1975	0.598	0.682	0.157	0.377	0.479	0.379	0.174	0.112	0.892	0.952	0.966	0.931	0.435	0.404	0.457	0.401	0.624	0.276
NCI-H1993	0.741	0.772	0.599	0.564	0.631	0.704	0.316	0.453	0.749	0.741	0.746	0.918	0.536	0.553	0.535	0.578	0.692	0.653
NCI-H2009	1.22	1.24	1.05	0.25	0.302	0.328	0.182	0.13	1.16	1.24	1.23	0.897	0.447	0.497	0.492	0.337	1.18	1.05
NCI-H2023	0.572	0.685	0.474	0.519	0.642	0.699	0.357	0.0963	0.818	0.682	0.743	0.975	0.409	0.399	0.405	0.447	0.541	0.409
NCI-H2085	1.02	1.05	0.612	0.249	0.283	0.251	0.222	0.179	0.872	0.973	1.11	0.781	0.816	0.855	0.796	0.816	0.971	0.829
NCI-H2087	1.06	1.11	0.757	0.782	0.903	1.15	–	0.481	1.1	1.3	1.19	0.978	0.405	0.601	0.535	0.496	0.959	1.09
NCI-H2126	0.851	0.75	0.625	0.6	0.619	0.596	0.496	0.243	1.24	1.15	1.06	1.34	0.541	0.533	0.586	0.62	0.721	0.723
NCI-H2170	0.773	0.904	0.714	0.481	0.579	0.613	0.267	0.324	0.764	1.03	1.05	1.01	0.379	0.424	0.415	0.458	0.783	0.576
NCI-H2228	0.735	0.9	0.161	0.442	0.695	0.646	0.195	0.135	0.904	0.82	1.24	1.09	0.352	0.301	0.311	0.417	0.702	0.618
NCI-H2347	1.15	1.12	0.856	0.322	0.339	0.324	0.319	0.299	1.13	1.17	1.35	1.33	0.53	0.319	0.447	0.379	0.984	0.791
NCI-H2405	0.756	0.795	0.205	0.19	0.226	0.224	0.198	0.142	1.16	1.08	1.13	1.05	0.43	0.459	0.484	0.366	0.751	0.466
NCI-H3122	0.807	0.739	0.678	0.743	0.844	0.832	–	0.491	0.869	0.955	0.988	1.05	0.36	0.391	0.387	0.333	0.729	0.695
PC-3 [JPC-3]	1.15	1.13	0.699	0.951	1.09	1.27	0.915	0.737	0.978	1.03	1.12	1.05	0.494	0.481	0.478	0.471	0.988	0.902
PC-14	1.01	1.01	0.636	0.271	0.241	0.283	0.105	0.0312	0.985	1.06	1	1.01	0.357	0.633	0.488	0.4	0.947	0.664
RERF-LC-KJ	1.07	0.971	0.597	0.782	0.878	0.939	0.678	0.503	0.787	0.809	0.911	0.886	0.376	0.443	0.537	0.477	0.87	0.738
SK-LU-1	0.849	1.05	0.203	0.164	0.174	0.186	0.0685	0.0703	0.908	0.872	0.922	0.829	0.444	0.649	0.628	0.662	1.01	0.368
